Patent publication US4521419A, “Condensed cycloaliphatic derivatives of substituted pyrido[1,2-a]pyrimidines and methods of treating allergic conditions, peptic ulcers and inhibiting gastric acid secretion with them” (Farmitalia Carlo Erba S.p.A., priority 1982, dated 1985)

Experiments:
[1] = tested on: gastric secretion in rats; test: inhibition of gastric secretion in rats (H. Shay et al.); format: in vivo; settings: rat, intraduodenal administration; read-out: antisecretory activity, approximate ED25
Experimental: (§1) One of the preferred compounds of the invention having antisecretory activity is, for example, the compound 3-(2-methyl-benzylidene)-1,2,3,10-tetrahydro-10-oxo-10H-cyclopenta[d]pyrido[1,2-a]pyrimidine-7-carboxylic acid, which has an approximate ED25 value of 10 mg/kg in the above test in the rat, after intraduodenal administration. In view of their high therapeutic index the compounds of the invention can be safely used in medicine. For example, the approximate acute toxicity (LD50) of the compounds 3-benzylidene-1,2,3,10-tetrahydro-10-oxo-cyclopenta[d]pyrido[1,2-a]pyrimidine-7-carboxylic acid, 3-(2-methyl-benzylidene)-1,2,3,10-tetrahydro-10-oxo-10H-cyclopenta[d]pyrido[1,2-a]pyrimidine-7-carboxylic acid and 4-benzylidene-1,2,3,4-tetrahydro-11-oxo-11H-pyrido[2,1-b]quinazoline-8-carboxylic acid, in the mouse, determined with single administration of increasing doses and measured on the seventh day after the day of treatment, is per os higher than 800 mg/kg. Analogous toxicity data have been found for the other compounds of the invention.

[2] = acute toxicity (LD50) in the mouse; settings: in vivo, po, per os, single administration of increasing doses, measured on the seventh day after treatment, read-out: approximate acute toxicity (LD50)
Experimental: as §1

restraint ulcers in rats = test: inhibition of restraint ulcers in rats (Bonfils et al.); format: in vivo; settings: po, 1 h; rat, per os one hour before immobilization; approximate value; read-out: Anti-ulcerogenic activity ED50
Experimental: (§2) For example, in the above test in the rat the compound FCE 21273 gives about a 30% inhibition of RPAR reaction when administered orally at a dosage of 100 mg/kg. The compounds of the present invention, furthermore, are active on the gastroenterical system, in particular they are endowed with anti-ulcerogenic and anti-secretory activity and are therefore useful in therapy, for example, in the prevention and treatment of peptic, e.g., duodenal, gastric and esophageal, ulcers and to inhibit gastric acid secretion. The anti-ulcerogenic activity of the compounds of the invention is shown, e.g., by the fact that they are active in the test of inhibition of restraint ulcers in rats, according to the method of Bonfils et al. (Therapie, 1960, 15, 1096; Jap. J.Pharmac. 1968, 18, 9).
The tested compound was administered per os (p.o.) one hour before the immobilization.
Six Sprague-Dawley male rats (100-120 g) fasted 24 hours were used for the experiment: a square flexible small-mesh wire netting was used for the immobilization and 4 hours after the immobilization the rats were sacrificed, their stomachs were removed and the lesions counted under a dissecting microscope.

rat peritoneal cells = test: A 23187 induced SRS production from rat peritoneal cells; format: cell-based; settings: in vitro, FCE 21273 at 1 mcg/ml
Text: (1) test of A 23187 induced SRS production from rat peritoneal cells, according to M. K. Bach and J. R. Brashler (J. Immunol., 113, 2040, 1974);

chopped guinea-pig lung = test: antigen induced SRS production from chopped guinea-pig lung; format: cell-based; settings: Cavia porcellus, in vitro, FCE 21273 at 10 mcg/ml
Text: (2) test of antigen induced SRS production from chopped guinea-pig lung, according to W. E. Brocklehurst (J. Physiol., 151, 416, 1960); and in vivo

[3] = tested on: Reversed Passive Arthus Reaction (RPAR); test: Reversed Passive Arthus Reaction (RPAR) in the rat; format: in vivo; settings: administered orally at 100 mg/kg
Text: Furthermore the compounds of this invention are effective in vivo, for example, in inhibiting the Reversed Passive Arthus Reaction (RPAR) which is a model of immune-complex induced inflammatory reaction initiated by the interaction of antigen and antibody resulting in the formation of precipitating immune-complex, followed by complement fixation and accumulation of PMN in the focal site (D. K. Gemmell, J. Cottney and A. J. Lewis, Agents and Actions 9/1 page 107, 1979).
as §2

Structure (SMILES)	ED25 [1] [mg/kg]	LD50 at 168 h [2] [mg/kg]	ED50 (restraint ulcers in rats) [mg/kg]	inhibition at 1 µg/mL (rat peritoneal cells) [%]	inhibition at 10 µg/mL (chopped guinea-pig lung) [%]	inhibition of RPAR reaction [3] [%]
Cc1ccccc1C=C1CCc2c1nc1ccc(C(=O)O)cn1c2=O [3-(2-methyl-benzylidene)-1,2,3,10-tetrahydro-10-oxo-cyclopenta[d]pyrido[1,2-a]pyrimidine-7-carboxylic acid]	~10	> 800				
O=C(O)c1ccc2nc3c(c(=O)n2c1)CCC3=Cc1ccccc1 [3-benzylidene-1,2,3,10-tetrahydro-10-oxo-cyclopenta[d]pyrido[1,2-a]pyrimidine-7-carboxylic acid]		> 800	12			
O=C(O)c1ccc2nc3c(c(=O)n2c1)CCCC3=Cc1ccccc1 [FCE 21273, 4-benzylidene-1,2,3,4-tetrahydro-11-oxo-11H-pyrido[2,1-b]quinazoline-8-carboxylic acid]		> 800		50	47	~30
